One compound from article PMC10037464, “Chemical Knockdown of Phosphorylated p38 Mitogen-Activated Protein Kinase (MAPK) as a Novel Approach for the Treatment of Alzheimer′s Disease” (ACS Central Science, 2023) can be followed below.

SMILES strings stand for the structures.

Test [1] concerns the target T1, p38 MAPK, active phosphomimetic mutant (Homo sapiens, UniProt Q16539, D176A).
T1 construct: gene MAPK14; p38 active form expressed in HEK293T cells
Kind of test: degradation of expressed mutant in HEK293T cells (immunoblot). Type of test: cell-based. (In general: A western blot detects proteins with antibodies after separation by electrophoresis.)

Test [2] deals with T2, phosphorylated p38 MAPK (p-p38) (Homo sapiens, UniProt Q16539).
T2 construct: gene MAPK14; phosphorylated p38 in HEK293T cells
Briefly: CRBN- and proteasome-dependent degradation in cells (immunoblot DC50). The test is classed as cell-based.

T1 sequence (Q16539 2-360 D176A): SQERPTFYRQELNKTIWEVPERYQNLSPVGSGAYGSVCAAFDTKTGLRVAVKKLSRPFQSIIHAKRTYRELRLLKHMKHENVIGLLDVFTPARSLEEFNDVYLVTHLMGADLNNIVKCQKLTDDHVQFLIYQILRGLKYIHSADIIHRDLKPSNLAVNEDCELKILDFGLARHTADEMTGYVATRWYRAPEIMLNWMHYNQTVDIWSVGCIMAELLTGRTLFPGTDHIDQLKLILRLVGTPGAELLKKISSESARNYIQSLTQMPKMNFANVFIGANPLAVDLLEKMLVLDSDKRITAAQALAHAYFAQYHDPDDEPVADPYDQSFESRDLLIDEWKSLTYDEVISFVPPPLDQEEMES
T2 sequence (Q16539 2-360): as the sequence (Q16539 2-360 D176A) above, with A175D counted along it
T2 sequence (Q96SW2 whole entry partner): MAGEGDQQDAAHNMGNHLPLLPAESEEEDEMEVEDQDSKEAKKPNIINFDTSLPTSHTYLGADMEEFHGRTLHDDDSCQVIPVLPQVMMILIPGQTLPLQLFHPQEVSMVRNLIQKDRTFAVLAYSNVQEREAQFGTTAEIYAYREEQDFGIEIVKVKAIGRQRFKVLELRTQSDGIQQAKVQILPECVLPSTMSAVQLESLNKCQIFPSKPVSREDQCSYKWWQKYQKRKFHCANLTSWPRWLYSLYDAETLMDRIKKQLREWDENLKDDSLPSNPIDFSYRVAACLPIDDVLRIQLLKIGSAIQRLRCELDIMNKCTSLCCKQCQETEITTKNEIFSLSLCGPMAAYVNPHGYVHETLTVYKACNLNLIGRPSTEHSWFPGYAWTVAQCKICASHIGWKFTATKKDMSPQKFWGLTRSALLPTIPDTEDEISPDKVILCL

On to `Cc1ccc(C(=O)NC2CC2)cc1-c1ccc(C(=O)c2ccc(OCCOCCOC(=O)Nc3cccc4c3C(=O)N(C3CCC(=O)NC3=O)C4=O)cc2)cc1` (centres unmarked) [compound 2, PRZ-18002], for which, in test [1], the “degradation of expressed mutant in HEK293T cells (immunoblot)” value is “significant reduction of active p38 mutant (D176A) in preference to wild-type p38”. For the same compound, in test [2], the DC50 (commonly the concentration giving 50% degradation) is 93 nM.
